Where two headings read alike, the source gives them in different places.
Tests used:
HBV = experiment: Anti-HBV activity: intracellular HBV DNA by real-time PCR in HepG2.117 cell line; type: cell-based, Hepatitis B virus; conditions: Hepatitis B virus, read-out: HBV-AVE-HepG2.117 EC50 (μM, mean value)
Summary of the method: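 HepG2.117 cells, a Tet-off inducible HBV-producing line, induced to replicate HBV and then treated with serially diluted compound. After 3 days, intracellular HBV DNA quantified by real-time PCR with HBV-specific primers and probe.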

[1] = Cytotoxicity in HepG2.117 cells, ATPlite Luminescence Assay; type: cell-based, human; conditions: human, incubated for 3 days, mean value, read-out: TOX-HepG2.117 CC50 (μM, mean value)
Experimental: Cytotoxicity of the compounds was tested using HepG2 or HepG2.117 cells, incubated for 3 days in the presence of compounds. The viability of the cells was assessed using the PERKIN ELMER ATPlite Luminescence Assay System.”

[2] = 72 h, HepG2.117 cells, 3 days of treatment, intracellular HBV DNA by real-time PCR, mean value

C[C@@H]1Cc2nn3c(c2CN1C(=O)c1ccc(Cl)c(Cl)c1)C(=O)N(Cc1ccc(F)c(C#N)c1)CC3 [Example C216]
EC50 (HBV; [2]): 0.09 µM | CC50 at 3 days [1]: > 50 µM

C[C@@H]1Cc2nn3c(c2CN1C(=O)c1ccc(Cl)c(Cl)c1)C(=O)N(Cc1cccnc1C(F)(F)F)CC3 [Example C233]
EC50 (HBV; [2]): 0.423 µM | CC50 at 3 days [1]: 29.8 µM

C[C@@H]1Cc2nn3c(c2CN1C(=O)c1ccc(Cl)c(Cl)c1)C(=O)N(Cc1cc(C#N)c(F)cc1F)CC3 [Example C178]
EC50 (HBV; [2]): 0.207 µM | CC50 at 3 days [1]: > 50 µM

C[C@@H]1Cc2nn3c(c2CN1C(=O)c1ccc(Cl)c(Cl)c1)C(=O)N(Cc1ccc(C(F)(F)F)nc1)CC3 [Example C171]
EC50 (HBV; [2]): 0.082 µM | CC50 at 3 days [1]: 15.3 µM

COc1ccc([C@@H](C)N2CCn3nc4c(c3C2=O)CN(C(=O)c2ccc(Cl)c(Cl)c2)[C@H](C)C4)cc1 [Compound 23, (3R)-2-(3,4-Dichlorobenzoyl)-9-[(1R)-1-(4-methoxyphenyl)ethyl]-3-methyl-1,2,3,4,8,9-hexahydropyrido[4′,3′:3,4]pyrazolo[1,5-a]pyrazin-10(7H)-one]
EC50 (HBV; [2]): 0.022 µM | CC50 at 3 days [1]: > 50 µM

Cc1nc(CN2CCn3nc4c(c3C2=O)CN(C(=O)c2ccc(Cl)c(Cl)c2)[C@H](C)C4)cs1 [Example C162]
EC50 (HBV; [2]): 0.082 µM | CC50 at 3 days [1]: > 50 µM

C[C@@H]1Cc2nn3c(c2CN1C(=O)c1cc2c(Cl)cc(F)cc2[nH]1)C(=O)N(Cc1ccccn1)CC3 [Example C116]
EC50 (HBV; [2]): 0.015 µM | CC50 at 3 days [1]: 12.4 µM

COc1ccc(C#N)cc1CN1CCn2nc3c(c2C1=O)CN(C(=O)c1ccc(Cl)c(Cl)c1)[C@H](C)C3 [Example C215]
EC50 (HBV; [2]): 0.106 µM | CC50 at 3 days [1]: > 50 µM

Cc1nc(CN2CCn3nc4c(c3C2=O)CN(C(=O)c2ccc(Cl)c(Cl)c2)[C@H](C)C4)co1 [Example C156]
EC50 (HBV; [2]): 0.174 µM | CC50 at 3 days [1]: > 50 µM

C[C@@H]1Cc2nn3c(c2CN1C(=O)c1ccc(OC(F)F)c(Cl)c1)C(=O)N(Cc1ccccn1)CC3 [Example C113]
EC50 (HBV; [2]): 0.257 µM | CC50 at 3 days [1]: > 50 µM

C[C@@H]1Cc2nn3c(c2CN1C(=O)c1ccc(Cl)c(Cl)c1)C(=O)N(Cc1cc(F)ccc1OC(F)F)CC3 [Example C212]
EC50 (HBV; [2]): 0.05 µM | CC50 at 3 days [1]: > 50 µM

C[C@@H]1Cc2nn3c(c2CN1C(=O)c1cc2c(C#N)c(F)ccc2[nH]1)C(=O)N(Cc1ccccn1)CC3 [Example C100]
EC50 (HBV; [2]): 0.085 µM | CC50 at 3 days [1]: 15.5 µM

C[C@@H]1Cc2nn3c(c2CN1C(=O)c1ccc(Cl)c(Cl)c1)C(=O)N(Cc1nnc(C2CC2)o1)CC3 [Example C201]
EC50 (HBV; [2]): 0.229 µM | CC50 at 3 days [1]: > 50 µM

COc1ccc(CN2CCn3nc4c(c3C2=O)CN(C(=O)c2cc(F)c(F)c(F)c2)CC4)cc1 [Example C56]
EC50 (HBV; [2]): 0.962 µM | CC50 at 3 days [1]: 28.4 µM

C[C@@H]1Cc2nn3c(c2CN1C(=O)c1ccc(Cl)c(Cl)c1)C(=O)N(Cc1cc(F)cc(F)c1)CC3 [Example C196]
EC50 (HBV; [2]): 0.048 µM | CC50 at 3 days [1]: 38 µM

CN1CCCn2nc3c(c2C1=O)CN(C(=O)c1ccc(Cl)c(Cl)c1)CC3 [Compound 34, 2-(3,4-Dichlorobenzoyl)-10-methyl-1,2,3,4,7,8,9,10-octahydro-11H-pyrido[4′,3′:3,4]pyrazolo-[1,5-a][1,4]diazepin-11-one]
EC50 (HBV; [2]): 1.38 µM | CC50 at 3 days [1]: > 50 µM

CC(c1nc(C(C)(C)C)no1)N1CCn2nc3c(c2C1=O)CN(C(=O)c1ccc(Cl)c(Cl)c1)[C@H](C)C3 (some centres unmarked) [Example C217]
EC50 (HBV; [2]): 0.183 µM | CC50 at 3 days [1]: 39.5 µM

C[C@@H]1Cc2nn3c(c2CN1C(=O)c1ccc(Cl)c(Cl)c1)C(=O)N(Cc1ccncc1)CC3 [Compound 17, (3R)-2-(3,4-Dichlorobenzoyl)-3-methyl-9-[(pyridin-4-yl)methyl]-1,2,3,4,8,9-hexahydropyrido-[4′,3′:3,4]pyrazolo[1,5-a]pyrazin-10(7H)-one]
EC50 (HBV; HepG2.117, 72 h): 0.436 µM | CC50 at 3 days [1]: > 50 µM

COc1ccc(CN2CCn3nc4c(c3C2=O)CN(C(=O)c2ccc(C(F)F)c(C#N)c2)CC4)cc1 [Example C70]
EC50 (HBV; [2]): 0.232 µM | CC50 at 3 days [1]: > 50 µM
